Calls of active or inactive are those of the source. The rule behind the calls is not given here.
Columns and labels:
[1] = AUC (0-infinity) in Sprague-Dawley rat at 1 mg/kg,iv measured after 24 hrs by HPLC-MS/MS analysis; format: ADME, organism-based; set-up: time 24 hrs, dose 1 mg/kg, route iv; settings: in vivo
[2] = Drug distribution in Sprague-Dawley rat small intestine at 1 mg/kg,iv measured for 0.5 to 2 hrs by HPLC-MS/MS analysis; format: ADME, organism-based; settings: in vivo, time 0.5-2 hrs
[3] = Drug distribution in Sprague-Dawley rat plasma at 1 mg/kg,iv measured for 0.5 to 2 hrs by HPLC-MS/MS analysis; format: ADME, organism-based; settings: in vivo, time 0.5-2 hrs
Mus musculus = assay: Anti-inflammatory activity in C57BL/6 mouse assessed as inhibition of LPS-induced IL-1beta secretion at 10 mg/kg,ip administrated for 1 hr followed by LPS stimulation for 2.5 hrs by ELISA analysis; format: functional, organism-based
[4] = Acute toxicity in Kunming mouse model assessed as anorexia at 2000 mg/kg,IG administration for 7 days; format: organism-based; settings: in vivo, po, 168 h, time 7 day
[5] = Subacute toxicity in C57BL/6 mouse assessed as change in spleen weight at 10 mg/kg,ip administrated for 14 days; format: organism-based; settings: in vivo, 336 h, time 14 day
[6] = Subacute toxicity in C57BL/6 mouse assessed as kidney histological changes at 100 mg/kg,ip administrated for 14 days; format: organism-based; settings: in vivo, 336 h, time 14 day

SMILES: CCCNS(=O)(=O)c1ccc2c(c1)CC(N(Cc1cc(Cl)ccc1OCCOC)C(=O)c1cc3ccccc3o1)C2 (racemic)
- AUC(0-inf) [1]: 213 ng·h/mL
- Drug uptake [2]: Active
- Cp [3]: 2094.04 ng/g
- Activity (Mus musculus): Active
- Activity [4]: Non-Toxic
- Activity [5]: Non-Toxic
- Activity [6]: Non-Toxic
